Where two headings read alike, the source gives them in different places.
Tests used:
[1] = molecular target: T1, GalNAc-T2 lectin domain (T2ld) (Homo sapiens, UniProt Q10471); experiment: Direct binding ELISA to GalNAc-MUC1 glycopeptide, competitive inhibition, T2ld
T1 construct: made in house; host or cells: High Five insect cells (baculovirus, pAcGP67-A)
T1 sequence (Q10471 408-571): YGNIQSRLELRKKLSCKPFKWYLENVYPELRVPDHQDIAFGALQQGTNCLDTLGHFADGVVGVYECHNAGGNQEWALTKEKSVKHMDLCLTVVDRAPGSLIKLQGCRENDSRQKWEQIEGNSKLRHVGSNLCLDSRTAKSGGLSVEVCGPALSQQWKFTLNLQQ
Method: (§1) Protein biotinylation was made as previously reported^62. The pH of 1 ml purified protein (0.3 mg/ml) in PBS was adjusted to pH 9 with 1 M NaOH and 40 μl N-hydroxy-succinimidobiotin (Sigma) dissolved in DMF (10 mg/ml) was added. The solution was mixed end-over-end for 2 hours at room temperature, and dialyzed three times against PBS and an equal volume of glycerol was added. The biotinylated proteins were stored at −20° C. in 50% glycerol until use.
(§2) Direct binding ELISA assay was developed as follows: Polystyrene microtiter plates (Maxisorb, Nunc, Denmark) were coated with peptides or enzymatically glycosylated glycopeptides in PBS overnight at 4° C. Plates were washed and blocked with 0.1% Tween20 and 0.2% BSA in PBS for 1 h at room temperature, followed by incubation with biotinylated proteins in PBS with 0.05% Tween20 for 2 h at room temperature. After four washes with PBS, plates were incubated with 1:2,000 dilution streptavidin-HRP (Sigma) in PBS for 30 min at room temperature and washed four times with PBS. Development was performed with 0.5 mg/ml o-phenylenediamine and 0.02% H2O2 at room temperature for 15 min, and reaction stopped by adding 100 μl/well of 0.5 N H2SO4. Competitive inhibition assays were done at end-point titers of GalNAc-transferase proteins with one hour preincubations with inhibitor.
(§3) In binding studies using lectins without biotinylation antibodies to the HIS-tag and the T7-tag, or in some experiments antibodies raised to GalNAc-T2 and -T4 enzymes were used to detect binding.

[2] = molecular target: T2, secreted soluble GalNAc-T2 (sT2) (Homo sapiens, UniProt Q10471); experiment: Direct binding ELISA to GalNAc-MUC1 glycopeptide, competitive inhibition, sT2
T2 construct: HIS-tagged secreted human GalNAc-T2 and -T4 were prepared from pAC-GP67-T2-sol and pAC-GP67-T4-sol cDNA; 6xHis (N); thrombin cleavage site (N); T7 tag (N); made in house; host or cells: High Five insect cells (baculovirus)
Method: as §1, §2, §3

[3] = molecular target: T3, GalNAc-T4 lectin domain (T4ld) (Homo sapiens, UniProt Q8N4A0); experiment: Direct binding ELISA to GalNAc-MUC1 glycopeptide, competitive inhibition, T4ld
T3 construct: made in house; host or cells: High Five insect cells (baculovirus, pAcGP67-A)
Method: as §1, §2, §3

[4] = molecular target: T4, secreted soluble GalNAc-T4 (sT4) (Homo sapiens, UniProt Q8N4A0); experiment: Direct binding ELISA to GalNAc-MUC1 glycopeptide, competitive inhibition, sT4; settings: binding to GalNAc-MUC1 glycopeptide
T4 construct: using the GalNAc-T4-sol construct that encodes residues 32-578 inserted into pT7T3U19; 6xHis (N); thrombin cleavage site (N); T7 tag (N); made in house; host or cells: High Five insect cells (baculovirus)
Method: as §1, §2, §3

[5] = molecular target: Helix Pomatia lectin (HPA) (Helix pomatia, UniProt Q2F1K8); experiment: Direct binding ELISA, competitive inhibition, Helix Pomatia lectin control; settings: read-out: Concentration required for 50% inhibition (IC50), HPA; control plant lectin
From the text: Glycopeptides were purified by C-18 reverse phase HPLC. Peptides were custom synthesized by Neosystems (Strasbourg). Biotinylated Helix Pomatia lectin (HPA) was from KemEnTec (Denmark). Anti-MUC1 HMFG2 monoclonal antibody was a generous gift from Joyce Taylor-Papadimitriou. Anti-MUC1 SE5 monoclonal antibody was developed by immunizing Balb/c mice with 60-mer MUC1 tandem repeat peptide glycosylated with 5 moles GalNAc per repeat. Monoclonal antibodies to the lectin domains of human GalNAc-T2 and -T4 were developed as previously described^8, 63.
as §2
Inhibition experiments were used to further define the binding specificity of GalNAc-T2 and -T4 secreted soluble enzymes as well as lectin domains compared to Helix Pomatia lectin (Table VII).

[6] = molecular target: T5, GalNAc-T4 (Homo sapiens, UniProt Q8N4A0); experiment: Inhibition of glycosylation dependent (GalNAc-glycopeptide) activity of GalNAc-T4, MALDI-TOF time-course; assay type: biochemical; settings: […] free sugar
T5 construct: using the GalNAc-T4-sol construct that encodes residues 32-578 inserted into pT7T3U19; made in house; host or cells: High Five insect cells (baculovirus, pAcGP67)
Method: MALDI-TOF time-course in terminal reactions were performed in reactions of 25 μl containing 2.5 nmol acceptor (glyco)peptide, 40 nmol UDP-GalNAc, and 0.4 μg GalNAc-T4. Sampling of reactions (1 μl) were purified by nano-scale reversed-phase chromatography (Poros R3, PerSeptive Biosystem) and applied directly to the probe with matrix (41). The amount of GalNAc-transferase added was adjusted so that the reaction with the appropriate peptide was near completion in six hours. Reactions were incubated at 37° C. in a shaker bath. At times 0, 2 hours, and 16 hours a 1 μl aliquot was taken and purified. Mass spectra were acquired on either Voyager-DE mass spectrometer equipped with delayed extraction (Perseptive Biosystem Inc.). The matrix used was 2,5-dihydroxybenzoic acid (10 mg/ml, Hewlett-Packard) dissolved in a 2:1 mixture of 0.1% trifluoroacetic acid in 30% aqueous acetonitrile (Rathburn Ltd.).
Quantification of purified proteins was done by Coomassie stained SDS-PAGE and titration of immunoreactivity with the monoclonal antibody, UH6(4G2) (8). […] Wild-type GalNAc-T4 and mutant GalNAc-T4, GalNAc-T4^459H, were analysed with unglycosylated peptides (represented by PSGL-1) or GalNAc glycosylated glycopeptides (represented by GalNAc3TAP25V21) in reactions of 25 μl containing 2.5 nmol acceptor (glyco)peptide, 40 nmol UDP-GalNAc, and 0.4 μg GalNAc-T4. Time-course assays were motioned by MALDI-TOF. Sampling of reactions (1 μl) were purified by nano-scale reversed-phase chromatography (Poros R3, PerSeptive Biosystem) and applied directly to the probe with matrix. Evaluation of inhibition of the glycopeptide specificity of wild-type GalNAc-T4 with free sugars was performed to establish if the lectin domain recognized carbohydrate. […] Further, analysis was performed with 10 mM α-D-GalNAc-1-benzyl, αGlcNAc-benzyl, and fully occupied GalNAc-glycopeptide, GalNAc6TAP25, at 5 mM.

[7] = molecular target: T6, GalNAc-T2 (Homo sapiens, UniProt Q10471); experiment: GalNAc-T2 transferase activities with UDP-GalNAc or UDP-Gal donor (Muc2 acceptor, peptide panel); assay type: biochemical; settings: peptide as acceptor substrate
T6 construct: Soluble, secreted expression constructs of human GalNAc-transferases GalNAc-T1, -T2, -T3, -T4, -T6, -T7, and -T11; made in house; host or cells: insect cells (baculovirus)
Method: (§4) Standard reaction mixtures (50 μl final volume) contained 25 mM cocadylate (pH 7.4), 10 mM MnCl2, 0.25% Triton X-100, 200 μM UDP-[^14C]-GalNAc (2,000 cpm/nmol) (Amersham), 200-500 μM acceptor peptides. Products were quantified by scintillation counting after chromatography on Dowex-1, octadecyl silica cartridges (Bakerbond), or HPLC (PC3.2/3 or mRPC C2/C18 SC2.1/10 Pharmacia, Smart System). […] Glycopeptides were purified on Supelclean LC-18 columns (1 ml, Supelco), and the number of GalNAc residues incorporated evaluated by MALDI-TOF mass spectrometry. The enzyme sources used were semipurified as previously described by successive sequential ion-exchange chromatographies on Amberlite (IRA95, Sigma) or DEAE Sephacel (Pharmacia), S-Sepharose Fast Flow (Pharmacia), and Mini-S™ (PC 3.2/3, Pharmacia) using the Smart System (Pharmacia) (28). Secreted GalNAc-T4 was obtained from a stably transfected CHO line (CHO/GalNA-T4/21A) (8) grown in roller bottles in HAMS F12 supplemented with 10% Fetal Bovine Serum. The experiments illustrated in FIG. 1 was performed with recombinant secreted GalNAc-T4 obtained from a stably transfected CHO line (8). Experiments illustrated in FIGS. 2 and 3 were performed with secreted GalNAc-T4 expressed in High Five cells grown in serum-free medium (8). Structural analysis of glycopeptides were performed by a combination of PFPA (pentafluoropropionic acid) hydrolysis and MALDI-TOF mass spectrometry as previously described (40). Secreted GalNAc-T7 was obtained from infected High Five™ cells grown in serum-free medium (Invitrogen) in upright roller bottles shaken 140 rpm in waterbaths at 27° C. GalNAc-T7 was not purified by Mini-S as the yields from cationic chromatography were low due to its low pI (6.4).
(§5) Galactosyl transferring activities of GalNAc-T1, -T2, and -T3, were assayed with a panel of acceptor peptides in standard reaction mixtures containing 100 μM UDP-Gal instead of UDP-GalNAc. […] Further, analysis was performed with 10 mM α-D-GalNAc-1-benzyl, αGlcNAc-benzyl, and fully occupied GalNAc-glycopeptide, GalNAC6TAP25, at 5 mM.

[8] = molecular target: T7, GalNAc-T3 (Homo sapiens, UniProt Q14435); experiment: GalNAc-T3 transferase activities with UDP-GalNAc or UDP-Gal donor (EA2 acceptor, peptide panel); assay type: biochemical; settings: peptide as acceptor substrate
T7 construct: Soluble, secreted expression constructs of human GalNAc-transferases GalNAc-T1, -T2, -T3, -T4, -T6, -T7, and -T11; made in house; host or cells: insect cells (baculovirus)
T7 sequence (Q14435 38-633 limits assumed): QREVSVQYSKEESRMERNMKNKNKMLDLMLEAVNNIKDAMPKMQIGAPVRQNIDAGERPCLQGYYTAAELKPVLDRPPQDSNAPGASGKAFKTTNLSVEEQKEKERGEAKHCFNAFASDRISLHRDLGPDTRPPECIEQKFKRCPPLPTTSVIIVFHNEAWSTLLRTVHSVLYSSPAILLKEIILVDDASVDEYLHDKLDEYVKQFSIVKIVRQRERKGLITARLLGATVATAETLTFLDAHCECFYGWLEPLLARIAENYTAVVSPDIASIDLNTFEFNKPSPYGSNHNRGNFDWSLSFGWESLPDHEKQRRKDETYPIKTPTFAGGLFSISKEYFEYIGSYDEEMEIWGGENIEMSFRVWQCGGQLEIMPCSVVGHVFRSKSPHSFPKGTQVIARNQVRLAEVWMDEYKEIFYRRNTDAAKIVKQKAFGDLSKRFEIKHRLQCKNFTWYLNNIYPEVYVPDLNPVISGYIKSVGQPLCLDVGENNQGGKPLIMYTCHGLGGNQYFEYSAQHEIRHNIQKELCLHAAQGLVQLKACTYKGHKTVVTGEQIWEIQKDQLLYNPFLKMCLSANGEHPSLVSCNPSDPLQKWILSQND
Method: as §4, §5

[9] = read-out: Concentration required for 50% inhibition (IC50), T2ld
[10] = read-out: Concentration required for 50% inhibition (IC50), sT2
[11] = read-out: Concentration required for 50% inhibition (IC50), T4ld
[12] = read-out: Concentration required for 50% inhibition (IC50), sT4

Compound	IC50 [5]	IC50 [1, 9]	IC50 [2, 10]	IC50 [4, 12]	further results
COC1O[C@H](CO)[C@H](O)[C@H](O)[C@H]1O (single isomer, unassigned) [MeβGal]					IC50 [1]: > 100 mM; IC50 [2]: > 100 mM; IC50 [3]: > 100 mM; IC50 [4]: 40 mM
CC(=O)N[C@H]1[C@H](OCc2ccccc2)O[C@H](CO)[C@@H](O)[C@@H]1O [BzlβGlcNAc]	> 20 mM				IC50 [1]: > 100 mM; IC50 [2]: > 100 mM; IC50 [3]: > 100 mM; IC50 [4]: > 100 mM
C[C@@H]1OC(O)[C@@H](O)[C@H](O)[C@@H]1O (stereo partly drawn) [Fuc]					Inhibition of glycosylation dependent specificity of GalNAc-T4 [6]: failed to show significant inhibition
OC[C@H]1OC(O)[C@H](O)[C@@H](O)[C@H]1O (stereo partly drawn) [Gal]					Inhibition of glycosylation dependent specificity of GalNAc-T4 [6]: failed to show significant inhibition
CC(=O)N[C@H]1C(O)O[C@H](CO)[C@@H](O)[C@@H]1O (stereo partly drawn) [GlcNAc]	8 mM	> 100 mM	> 100 mM	> 100 mM	Inhibition of glycosylation dependent specificity of GalNAc-T4 [6]: failed to show significant inhibition; IC50 [3, 11]: > 100 mM
CO[C@H]1O[C@H](CO)[C@H](O)[C@H](O)[C@H]1O [MeαGal]	> 100 mM	> 100 mM	> 100 mM	50 mM	IC50 [3, 11]: > 100 mM
CC(=O)N[C@H]1[C@@H](Oc2ccccc2)O[C@H](CO)[C@H](O)[C@@H]1O [PhlαGalNAc]	1 mM	15 mM			
O=c1ccn([C@@H]2O[C@H](COP(=O)(O)OP(=O)(O)O)[C@@H](O)[C@H]2O)c(=O)[nH]1 [UDP]	> 100 mM	> 100 mM	> 100 mM	> 100 mM	IC50 [3, 11]: > 100 mM
CC(=O)N[C@H]1[C@H](Oc2ccccc2[N+](=O)[O-])O[C@H](CO)[C@H](O)[C@@H]1O [oNPβGalNAc]	> 20 mM				IC50 [1]: > 12 mM; IC50 [3]: 8 mM; IC50 [4]: 1 mM
CC(=O)N[C@H]1[C@H](Oc2ccc([N+](=O)[O-])cc2)O[C@H](CO)[C@H](O)[C@@H]1O [pNPβGalNAc]	> 20 mM			0.8 mM	
EA2: acceptor peptide PTTDSTTPAPTTK derived from rat submandibular gland mucin					GalNAc-T2 activity with UDP-Gal by acceptor peptide [7]: 1.5 nmol/min/mL; GalNAc-T3 activity with UDP-Gal by acceptor peptide [8]: 6.8 nmol/min/mL
Muc2: acceptor peptide PTTTPISTTTMVTPTPTPTC derived from human intestinal mucin MUC2					GalNAc-T2 activity with UDP-Gal by acceptor peptide [7]: 90 nmol/min/mL; GalNAc-T3 activity with UDP-Gal by acceptor peptide [8]: 0 nmol/min/mL
uridine diphospho-N-acetylgalactosamine [UDPαGalNAc]		> 100 mM	65 mM	30 mM	

From US7338932B2, “Methods of modulating functions of polypeptide GalNAc-transferases and of screening test substances to find agents herefor, pharmaceutical compositions comprising such agents and the use of such agents for preparing medicaments” (Glycozym APS, priority 2000, dated 2008)
